Laboratory results: patent US20220315539A1, “PHENAZINE DERIVATIVE AND USE THEREOF FOR THE TREATMENT OF CANCER” (CENTRE NATIONAL DE LA RECHERCHE SCIENTIFIQUE, priority 2019, published 2022)

Legend:
[1] = test system: healthy donor fibroblasts; assay: Internalization by flow cytometry (red fluorescent cells); format: cell-based; details: 0.5 nM
Procedure: by healthy living cells of the fibroblast type. Cells were treated with 0.5 nM compound for 1, 3, 6 or 24 h and red fluorescence was measured by flow cytometry. […] The x-axis represents the incubation time in hours and the y-axis the percentage of red fluorescent cells.
(§1) To do this, MCF-7 cells or healthy donor fibroblasts have been treated or not with 0.5 nM of compound of formula
(§2) for 1, 3, 6 or 24 h, and cell fluorescence was assessed by flow cytometry by detecting the number of cells with red fluorescence.

MCF-7 cells [2] = assay: as above; format: cell-based, human; details: MCF-7, 0.5 nM
Procedure: by live MCF-7 cancer cells. Cells were treated with 0.5 nM compound for 1, 3, 6 or 24 h and red fluorescence was measured by flow cytometry. […] The x-axis represents the incubation time in hours and the y-axis the percentage of red fluorescent cells.
as §1, §2

[3] = Singlet oxygen (1O2) production quantum yield; format: physicochemical
Procedure: The absorption spectra were measured with a Perkin-Elmer double beam UV-visible spectrophotometer (Lambda EZ 210). The fluorescence spectrum was measured with a Fluorolog FL3-222 spectrofluorimeter (Horiba Jobin Yvon, Longjumeau, France) equipped with a 450 W xenon arc lamp, a thermostated compartment (25° C.), a photomultiplier UV-visible R928 ([…] Japan) and an InGaAs infrared detector cooled with liquid nitrogen (DSS-16A020L Electro-Optical System Inc, Phoenixville, Pa., USA). The excitation beam is separated by an SPEX dual grating monochromator (1200 lines/mm blazed at 330 nm). The fluorescence was measured by the UV-Visible detector via the SPEX double grating emission monochromator (1200 lines/mm blazed at 500 nm). The production of singlet oxygen was measured by the infrared detector via the SPEX double grating emission monochromator (600 lines/mm blazed at 1 μm). All spectra were measured using 4-sided quartz cuvettes. The absorbance values at the excitation wavelength of the references and samples have been adjusted to approximately 0.2.
By this method, the inventors were able to measure the quantum yield ϕΔ, which is 0.11 for the compound

[4] = Fluorescence quantum yield in acetonitrile; format: physicochemical; details: for quantum yield of fluorescence ϕf: in MeCN, excitation at 483 nm, emission 637 nm (II) or 550 nm (II-H), reference tetraphenylporphyrin
Source text: The inventors then set out to measure the value ϕf of the quantum yield of fluorescence of the following compound taken up in acetonitrile
To do this, the inventors measured the absorbance (relative intensity) as a function of the wavelength (in nm) in the presence of increasing doses of 1,8-[…] (DBU—0 to 2 equivalents).
Phenazinium II and its II-H conjugate base fluoresce in MeCN at neutral or basic pH. […] The reference used for the calculation of the fluorescence quantum yield is tetraphenylporphyrin in acetonitrile (ϕf=0.15).
Calculation of ϕ: It is determined by measuring the emission intensity of a solution of known concentration; the reference used to calculate the fluorescence quantum yield here is tetraphenylporphyrin in acetonitrile (ϕf=0.15).

MCF-7 tumor cells = assay: Internalization kinetics with CLARIOstar plate reader; format: cell-based, human; details: MCF-7, in less than 24 hours
Procedure: Data are percent internalization (remaining fluorescence/total fluorescence) as a function of time in hours. Data are means of three experiments±standard deviation.
The internalization kinetics were carried out with a CLARIOstar reader in order to quantify the internalization of the compound in the MCF-7 tumor cells. The values, corresponding to the ratio of the residual fluorescence/the total fluorescence, are presented in the form of means of three experiments, ±the standard deviation.

MCF7 cells = assay: One-photon photodynamic therapy in vitro, MTT viability; format: cell-based, human; details: MCF7, 100 nM, 5 h incubation, one-photon irradiation (λirrad.=514 nm), MTT two days later
Procedure: FIG. […] Two days later, the cells were subjected to a colorimetric cell viability assay (MTT). The experiment was carried out 3 times.
The inventors tested the effect of the compounds according to the invention in photodynamic therapy. MCF7 cells were incubated with the compound of formula
[…] Two days later, the cells were subjected to a colorimetric cell viability assay (MTT).

MCF-7 cells [5] = assay: Two-photon photodynamic therapy in vitro; format: cell-based, human; details: two-photon λirrad.=810 nm, irradiation 5 seconds, 100 nM
Procedure: As a control, untreated MCF7 cells without irradiation (A1), after irradiation at 790 nm (B1) or 810 nm (C1) are presented. […] Data are means of three experiments±standard deviation.
Two-photon photodynamic therapy (λirrad.=810 nm) has shown very encouraging results, since nearly 50% of tumor cells are killed without optimization (irradiation for only 5 seconds at a very low concentration of 100 nM of compound according to the invention).

CCCCCCCCNc1ccc2nc3cc(NC(C)(C)C)c(N)cc3[n+](CCCCCCCC)c2c1 [drawing 47]
cells that have internalized the compound ([1]; 6 h incubation): 18%
cells that have internalized the compound ([1]; 24 h incubation): 24%
cells that have internalized the compound (MCF-7 cells [2]; 6 h incubation): 46%
cells that have internalized the compound (MCF-7 cells [2]; 24 h incubation): 90%

CCCCCCCCNc1ccc2nc3cc(NC(C)(C)C)c(N)cc3[n+](CCCCCCCC)c2c1 [drawing 44]
singlet oxygen quantum yield ϕΔ [3]: 0.11

CCCCCCCCNc1ccc2nc3cc(NC(C)(C)C)c(=N)cc-3n(CCCCCCCC)c2c1 [II-H]
quantum yield of fluorescence ϕf [4]: 0.08

CCCCCCCCNc1ccc2nc3cc(NC(C)(C)C)c(N)cc3[n+](CCCCCCCC)c2c1 [II]
quantum yield of fluorescence ϕf [4]: 0.76
brightness (B=ε×ϕ) ([4]; in acetonitrile): about 50000
percent internalization (compound penetrating the cell) (MCF-7 tumor cells): 10%

CCCCCCCCNc1ccc2nc3cc(NC(C)(C)C)c(N)cc3[n+](CCCCCCCC)c2c1 [drawing 45]
tumor cells killed (MCF7 cells): 98%
tumor cells killed (MCF-7 cells [5]): ~50%
